The text below walks through data of patent publication US8163509B2, “Biological markers predictive of anti-cancer response to insulin-like growth factor-1 receptor kinase inhibitors” (The Regents of the University of Colorado, A Body Corporate, priority 2008, dated 2012).

What all share (test): SRB proliferation assay, 72 h
What all share (assay type): cell-based, human
Background: Sulforhodamine B stains cellular protein and so reports cell mass.

The subject of one assay is SW480 CRC cell line. The following applies: for IC50: Homo sapiens, SW480. The procedure: Cell proliferation was evaluated by SRB following exposure to OSI-906 for 72 hours. Cells were plated at an optimized density in 96-well plates, incubated overnight at 37° C., and then exposed to a serial dilution of OSI-906. After 72 hours incubation, cells were fixed with trichloroacetic acid and an SRB was performed as described in materials and methods.
(§1) Cell Lines and Culture. […] human colon cancer cell lines, were obtained from American Type Culture Collection (Manassas, Va.). Cells were grown in RPMI medium supplemented with 10% fetal bovine serum, 1% non-essential amino acids, 1% penicillin/streptomycin and were maintained at 37° C. in an incubator under an atmosphere containing 5% CO2. The cells were routinely screened for the presence of mycoplasma (MycoAlert, Cambrex Bio Science, Baltimore, Md.) and were exposed to PQIP when they reached approximately 70% confluence.
(§2) Multiple clones from the same transfection were pooled and grown under puromycin selection.
(§3) The CRC cell lines were treated with a range of concentrations of PQIP (from 0.05-5 μM) for 72 hours.
(§4) To characterize the potential functionality that the selected genes may play in the sensitivity or resistance to PQIP, resistant and sensitive CRC cell lines were stably transfected with specific shRNA, treated with increasing concentrations of PQIP and proliferation assays performed to observe, if when manipulated, these genes alter responsiveness (i.e. the S or R phenotype). […] Both of these transfected cell lines were assayed for proliferation as described above.
Cell Lines and Culture: Twenty-seven human colon cancer cell lines, were obtained from American Type Culture Collection (Manassas, Va.). The GEO cells were a generous gift from Dr. Fortunato Ciardiello (Cattedra di Oncologia Medica, Dipartimento Medico-Chirurgico di Internistica Clinica e Sperimentale “F Magrassi e A Lanzara,” Seconda Università degli Studi di Napoli, Naples). All cells except GEO were grown in RPMI medium supplemented with 10% fetal bovine serum, 1% non-essential amino acids, 1% penicillin/streptomycin and were maintained at 37° C. in an incubator under an atmosphere containing 5% CO2. GEO cells were grown in DMEM/F12 supplemented with 10% fetal bovine serum, 1% non-essential amino acids, 1% penicillin/streptomycin. The cells were routinely screened for the presence of mycoplasma (MycoAlert, Cambrex Bio Science, Baltimore, Md.) and were exposed to OSI-906 when they reached approximately 70% confluence. OSI-906 was provided by OSI Pharmaceuticals, (Boulder, Colo.) and prepared as a 10 mM stock solution in DMSO.
as §2

In a further assay the test system is LS513 CRC cell line. Here is the method:
(§5) FIG. 17: Results of cell proliferation assay on the panel of 27 CRC cell lines. Cell proliferation was evaluated by SRB following exposure to OSI-906 for 72 hours. Cells were plated at an optimized density in 96-well plates, incubated overnight at 37° C., and then exposed to a serial dilution of OSI-906. After 72 hours incubation, cells were fixed with trichloroacetic acid and an SRB was performed as described in materials and methods.
as §1
(§6) Cytotoxicity and Combination Effects: HT29, HCT116, RKO, and LS513 CRC cell lines were exposed to 0-10 nM SN-38 (7-Ethyl-10-hydroxy-camptothecin), 0-10 μM Oxaliplatin, or 0-50 μM 5-Fluorouracil (5-FU) for 72 hours. HT29, HCT116, RKO, and LS513 CRC cell lines were exposed to PQIP in combination with SN-38, Oxaliplatin or 5-FU. In all combinations, cells were seeded in 96-well flat bottomed plates and left overnight. PQIP and chemotherapy were both added for 72 hours. The results of the combinations were analyzed by the Chou and Talalay method with Calcusyn (Biosoft, Ferguson, Mo.).
as §3
(§7) Combination treatment of PQIP with Chemotherapy in Colon Cancer Cell Lines: IGF1R is overexpressed in CRC and has been associated with resistance to chemotherapy. Therefore, we investigated the effect of PQIP in combination with standard chemotherapy for CRC. Four CRC cell lines including, two PQIP sensitive and two PQIP resistant, were chosen for combinations. HT29 and LS513 CRC cell lines were classified as sensitive, with IC50's around 0.3 μmol/L. HCT116 and RKO CRC cell lines were classified as resistant, with IC50>5 μmol/L. Concentrations were chosen based on single agent proliferation curves for each compound. Cells were exposed to PQIP and chemotherapy (SN38, oxaliplatin, or 5-Fluorouracil) concurrently for 72 h and combinations were assessed using the SRB assay. […] It thus appears that biomarkers which predict tumor cell sensitivity will also indicate which cells will respond in a synergistic manner to an IGF-1R kinase inhibitor (e.g. PQIP) and chemotherapy (i.e. SN38, oxaliplatin, or 5-Fluorouracil).
Cell Lines and Culture: Twenty-seven human colon cancer cell lines, were obtained from American Type Culture Collection (Manassas, Va.). The GEO cells were a generous gift from Dr. Fortunato Ciardiello (Cattedra di Oncologia Medica, Dipartimento Medico-Chirurgico di Internistica Clinica e Sperimentale “F Magrassi e A Lanzara,” Seconda Università degli Studi di Napoli, Naples). All cells except GEO were grown in RPMI medium supplemented with 10% fetal bovine serum, 1% non-essential amino acids, 1% penicillin/streptomycin and were maintained at 37° C. in an incubator under an atmosphere containing 5% CO2. GEO cells were grown in DMEM/F12 supplemented with 10% fetal bovine serum, 1% non-essential amino acids, 1% penicillin/streptomycin. […]

For a further assay, the system named is HT29 CRC cell line. Here is the method:
as §5, §1, §6, §3
as §4, with “phenotype). Two resistant cell lines HCT116 and SW480 were transfected with metallothionein 2A (MT-2A) shRNA and were exposed to increasing concentrations of PQIP.” for “phenotype).”, “above. […] HT29 tumor cells were transfected with shRNA for ALDH1A1, which is up regulated in the PQIP sensitive cell lines.” for “above.”
as §7
Cell Lines and Culture: Twenty-seven human colon cancer cell lines, were obtained from American Type Culture Collection (Manassas, Va.). The GEO cells were a generous gift from Dr. Fortunato Ciardiello (Cattedra di Oncologia Medica, Dipartimento Medico-Chirurgico di Internistica Clinica e Sperimentale “F Magrassi e A Lanzara,” Seconda Università degli Studi di Napoli, Naples). […]

Where two headings read alike, the source gives them in different places.

`CN1CCN([C@H]2C[C@@H](c3nc(-c4ccc5ccc(-c6ccccc6)nc5c4)c4c(N)nccn43)C2)CC1` [PQIP, cis-3-[3-(4-Methyl-piperazin-1-yl)-cyclobutyl]1-(2-phenyl-quinolin-7-yl)-imidazo[1,5-a]pyrazin-8-ylamine]: the IC50 was greater than 5 µM in the assay on SW480 CRC cell line (72 hours, 0.05-5 μM, read-out: IC50, growth inhibition by PQIP (SRB)); less than 0.5 µM with LS513 CRC cell line (Homo sapiens, LS-513, 72 h, LS513, 72 hours, 0.05-5 μM, read-out: IC50, growth inhibition by PQIP (SRB)); roughly 0.3 µM with LS513 CRC cell line (LS513, 72 hours, 0.05-5 μM, read-out: IC50, growth inhibition by PQIP (SRB)); roughly 0.3 µM in the assay with HT29 CRC cell line (HT29, 72 hours, 0.05-5 μM, read-out: IC50, growth inhibition by PQIP (SRB)); less than 0.5 µM in the assay on HT29 CRC cell line (Homo sapiens, HT-29, 72 h, HT29, 72 hours, 0.05-5 μM, read-out: IC50, growth inhibition by PQIP (SRB)). In addition, the “shift in sensitivity to PQIP after shRNA knockdown” value in the assay with SW480 CRC cell line (SW480 transfected with MT2A shRNA vs parental or scramble shRNA control) is “very modest if any left shift in sensitivity”; with SW480 CRC cell line (SW480 transfected with caldesmon shRNA vs parental or scramble shRNA control), “no left shift in sensitivity”; with HT29 CRC cell line (HT29 with ALDH1A1 shRNA knockdown), “no left shift in sensitivity”. For the same compound, the “combination index (CI) values, PQIP and chemotherapy” value with LS513 CRC cell line (LS513, PQIP with SN38, oxaliplatin or 5-Fluorouracil concurrently 72 h, nearly all CI values, Chou and Talalay) is 0.2-1.0; in the assay with HT29 CRC cell line (HT29, PQIP with SN38, oxaliplatin or 5-Fluorouracil concurrently 72 h, nearly all CI values, Chou and Talalay) it was 0.2-1.0.

Consider `C[C@]1(O)C[C@@H](c2nc(-c3ccc4ccc(-c5ccccc5)nc4c3)c3c(N)nccn32)C1` [OSI-906, cis-3-[8-amino-1-(2-phenyl-quinolin-7-yl)-imidazo[1,5-a]pyrazin-3-yl]-1-methyl-cyclobutanol], for which the IC50 is greater than 5 µM with SW480 CRC cell line (read-out: S/I/R to OSI-906); greater than 5 µM with SW480 CRC cell line (72 hours, read-out: IC50, proliferation, OSI-906 (SRB)); no more than 1.5 µM in the assay with LS513 CRC cell line (Homo sapiens, LS-513, 72 h, LS513, 72 hours, read-out: IC50, proliferation, OSI-906 (SRB)); no more than 1.5 µM in the assay with LS513 CRC cell line (Homo sapiens, LS-513, LS513, read-out: S/I/R to OSI-906); no more than 1.5 µM in the assay on HT29 CRC cell line (Homo sapiens, HT-29, 72 h, HT29, 72 hours, read-out: IC50, proliferation, OSI-906 (SRB)); no more than 1.5 µM with HT29 CRC cell line (Homo sapiens, HT-29, HT29, read-out: S/I/R to OSI-906). For the same compound, in the assay on SW480 CRC cell line (SW480 stably transfected with MT2A shRNA), the “shift in sensitivity to OSI-906 after MT2A shRNA knockdown” value is reported as “did not exhibit the same “left shift””.
